The structures appear in SMILES notation.

As a reminder, the inhibition is the relative decrease from the control value, in per cent.

The test system of one assay is Nippostrongylus. Put plainly: Nippostrongylus in vitro (acetylcholine esterase determination). More on the design: species or system Nippostrongylus brasiliensis. To be noted: read-out: inhibition of the enzyme (full activity). The protocol:
Nippostrongylus are isolated from the small intestine of rats and washed with 0.9% of NaCl supplemented with 29 μg/ml sisomycin and 2 μg/ml of clotrimazole. The actual incubation of in each case 5 male and female Nippostrongylus is carried out in 1.0 ml of medium used for determining the activity of acetylcholine esterase. Enzyme determination is by the method of Rapson et al., 1987 (E. B. Rapson, D. C. Jenkins, A. S. Chilwan), Improved detection of anthelmintic activity in vitro screen utilizing adult Nippostrongylus brasiliensis. Parasitol. Res. 1987 73, 190 to 191.
The following key is used for the assessment: 3=full activity, 100% inhibition of the enzyme; 2=good activity, more than 75% inhibition; 1=poor activity, less than 50% inhibition.

In assay [1] the test system is black bean aphid (Aphis fabae). Nature of the assay: whole plant or invertebrate. To be noted: active compound concentration 0.1%, bean plants watered, systemic action, read-out: destruction of aphids. The class given is in vivo. How it is done:
Aphis test (systemic action)
(§1) Solvent: 7 parts by weight of dimethylformamide
(§2) Emulsifier: 1 part by weight of alkylaryl polyglycol ether
(§3) To produce a suitable preparation of active compound, 1 part by weight of active compound is mixed with the stated amount of solvent and the stated amount of emulsifier, and the concentrate is diluted with water to the desired concentration.
Bean plants (Vicia faba) which are heavily infested with the black bean aphid (Aphis fabae) are each watered with 20 ml of the preparation of the active compound of the desired concentration in such a way that the preparation of active compound penetrates the soil without wetting the shoot. The active compound is taken up by the roots and translocated to the shoot.
After the specified period of time, the destruction in % is determined. 100% means that all the aphids have been killed; 0% means that none of the aphids have been killed.

A further assay has as its system Digitaria. Nature of the assay: Pre-emergence test, Digitaria. In kind it is in vivo. To be noted: 504 h, after three weeks, 0%=no action, 100%=total destruction, read-out: % Activity (damage to the plants). How it is done: (§4) Solvent: 5 parts by weight of acetone
as §2
(§5) To produce a suitable preparation of active compound, 1 part by weight of active compound is mixed with the stated amount of solvent, the stated amount of emulsifier is added and the concentrate is diluted with water to the desired concentration.
(§6) Seeds of the test plants are sown in normal soil and, after 24 hours, watered with the preparation of the active compound. It is expedient to keep constant the amount of water per unit area. The concentration of the active compound in the preparation is of no importance, only the amount of active compound applied per unit area being decisive. After three weeks, the degree of damage to the plants is rated in % damage in comparison to the development of the untreated control. The figures denote:
(§7) 0%=no action (like untreated control)
(§8) In this test, the following results were obtained at an exemplary application rate of 500 g/ha, the active compounds being tolerated well to very well by soya beans: […]

The next assay concerns Setaria. Nature of the assay: Pre-emergence test, Setaria. In kind it is in vivo. The note with it: 504 h, after three weeks, 0%=no action, 100%=total destruction, read-out: % Activity (damage to the plants). The protocol:
as §4, §2, §5, §6, §7, §8

The next assay relates to Panicum. Nature of the assay: Pre-emergence test, Panicum. The class given is in vivo. The note with it: 504 h, after three weeks, 0%=no action, 100%=total destruction, read-out: % Activity (damage to the plants). The protocol:
as §4, §2, §5, §6, §7, §8

The test system of another assay is Echinochloa. Nature of the assay: Pre-emergence test, Echinochloa. In kind it is in vivo. The note with it: 504 h, after three weeks, 0%=no action, 100%=total destruction, read-out: % Activity (damage to the plants). The protocol:
as §4, §2, §5, §6, §7, §8

For assay [2], the system named is Lucilia cuprina resistant larvae. Nature of the assay: Test with Lucilia cuprina resistant larvae. In kind it is in vivo. To be noted: after 24 hours, read-out: degree of destruction. The protocol:
Test with Lucilia cuprina resistant larvae
Emulsifier: 35 parts by weight of ethylene glycolmonomethyl ether 35 parts by weight of nonylphenol polyglycol ether
To produce a suitable preparation of active compound, three parts by weight of active compound are mixed with seven parts by weight of the abovementioned mixture and the concentrate thus obtained is diluted with water to the particular desired concentration.
About 20 Lucilia cuprina res. larvae are introduced into a test tube which contains approx. 1 cm^3 of horse meat and 0.5 ml of the preparation of active compound. After 24 hours, the degree of destruction is determined.

For assay [3], the system named is larvae of the green rice cicada (Nephotettix cincticeps). Nature of the assay: whole plant or invertebrate. In kind it is in vivo. The note with it: 144 h, read-out: destruction of cicadas. How it is done:
as §1, §2, §3
Rice seedlings (Oryza satira) are treated by being dipped into the preparation of active compound of the desired concentration and are infested with larvae of the green rice cicada (Nephotettix cincticeps) while the seedlings are still moist.
After the specified period of time, the destruction in % is determined. 100% means that all the cicadas have been killed; 0% means that none of the cicadas have been killed.

Assay [4] relates to caterpillars of the diamond-back moth (Plutella maculipennis). Put plainly: whole plant or invertebrate. The class given is in vivo. To be noted: in Brassica oleracea, 168 h, read-out: destruction of caterpillars. How it is done: as §1, §2, §3
Cabbage leaves (Brassica oleracea) are treated by being dipped into the preparation of active compound of the desired concentration and are infested with caterpillars of the diamond-back moth (Plutella maculipennis) while the leaves are still moist.
After the specified periods of time, the destruction in % is determined. 100% means that all the caterpillars have been killed; 0% means that none of the caterpillars have been killed.

Assay [5] has as its system mustard beetle larvae (Phaedon cochleariae). Nature of the assay: Phaedon larvae test. In kind it is in vivo. The note with it: 168 h, after 7 days, active compound concentration 0.1%, cabbage leaves dipped, read-out: destruction of beetle larvae. How it is done:
as §1, §2, §3
After the specified periods of time, the destruction in % is determined. 100% means that all the beetle larvae have been killed; 0% means that none of the beetle larvae have been killed.

For `CCOC(=O)c1c(C)oc(=O)c(-c2c(C)cc(C)cc2C)c1O` [Example 1], the inhibition at 100 ppm in the assay with Nippostrongylus was determined as 100%.

On to `Cc1cc(C)c(-c2c(O)c(C)c(C)oc2=O)c(C)c1` [Example 32], for which the mortality at 0.1 % in [1] and in assay [3] was 100% throughout. For the same molecule, the activity at 500 g/ha was 90 to 100% in the assay with Digitaria, 70 to 100% in the assay with Setaria, 95 to 100% in the assay on Panicum and 70 to 100% in the assay on Echinochloa. In addition, the mortality at 1000 ppm in [2] is 100%.

Consider `Cc1cc(C)c(-c2c(O)cc(-c3ccccc3)oc2=O)c(C)c1` [Example 46], for which the activity at 500 g/ha in the assay on Digitaria was 90 to 100%; in the assay with Panicum, 95 to 100%; with Echinochloa it was 70 to 100%. For the same molecule, the mortality at 0.1 % in assay [4] and in assay [5] was 100% in each case. For the same molecule, the mortality at 1000 ppm in assay [2] is 100%.
